Reference: US20080269343A1, “GALENIC FORMULATIONS OF ORGANIC COMPOUNDS” (priority 2004, published 2008)

How the values were obtained:
Assay type in all cases: in vivo, human
[1] = Single-dose 300 mg pharmacokinetic study in healthy and type 2 diabetic subjects (Example 4); conditions: single oral dose 300 mg; for AUC(0-t): read-out: AUC0-96
Procedure: An open label, non-randomized, single center, and parallel group single dose study in healthy and type 2 diabetic subjects was carried out. Two parallel groups, one group of 30 healthy, and one group of 30 type 2 diabetic patients, (age, weight and race matched) were enrolled, and all subjects completed the study in each group. Each subject participated in a 21-day screening period, a baseline period (Day −1), one day treatment period (Day 1) and a study completion evaluation 96 hours after the treatment.
Once eligibility had been confirmed each subject received a single oral dose of 300 mg of aliskiren (dosage form 3) on Day 1 with 96 hour sampling of pharmacokinetic (PK) parameters. Subjects were admitted to the study site at least 12 hours prior to the dosing and were confined to the clinic for at least 48 hours post-dose and were advised to come back for the rest of the PK samples collection. Subjects were to undergo a study completion evaluation on 96 hours post-dose prior to discharge from the study site.
Type 2 diabetic patients had been diagnosed with type 2 diabetes at least 1 year prior to screening, and were otherwise in good health. Healthy subjects were selected to match type 2 diabetes patients with regard to age (±5 yr) and weight (±10 kg).
(§1) Blood samples were collected to determine the pharmacokinetics following a single oral dose of 300 mg of aliskiren. Plasma concentrations of aliskiren were used to determine the pharmacokinetic parameters using non-compartmental methods, and the data are summarized in FIG. 4, and Tables 2 and 3.

[2] = Single and multiple dose 300 mg pharmacokinetic study in Japanese and Caucasian healthy male subjects (Example 5); conditions: for Cavg^SS / AUC(0-t) / Cmax / AUC: arithmetic mean (SD); for Tmax / AUC(0-t) / Cmax / AUC: male, human, plasma, oral, 300 mg; for Tmax: Median (minimum-maximum); for AUC(0-t): read-out: AUC0-72; for AUC: read-out: AUC0-τ
Procedure: An open label, non-randomized, single center, parallel group single and multiple dose study in healthy male subjects was carried out. Two parallel groups, one Japanese (n=19), the other Caucasian (n=19), age (±5 years) and weight matched (±25%), were enrolled in this study. Each subject participated in a 21-day screening period, a baseline period (Day −1), a 10 day treatment period (Days 1-10) and a study completion evaluation 4-7 days after the last PK sample. Each subject received a single 300 mg oral dose of aliskiren (dosage form 3) on Day 1 with 72 hour PK sampling, followed by multiple (once a day for 7 days) 300 mg oral doses of aliskiren on Days 4 through to 10. All administrations of aliskiren were given following a 10 hour fast. Subjects were domiciled in the study center from Day −1 (baseline) until the 24 hour post last-dose evaluations were completed oh Day 11.
as §1, with “aliskiren and multiple doses (once daily) of aliskiren 300 mg.” for “aliskiren.”, “FIGS. 5 and 6,” for “FIG. 4,”, “4” for “2”, “5.” for “3.”

[3] = Steady-state pharmacokinetics of aliskiren 300 mg alone, furosemide interaction study, Day 13 (Example 6); conditions: 300 mg daily, Day 13, healthy volunteers N 21; for AUC / Cmax / Tmax: both sexes, human, in vivo, oral, 300 mg
Procedure: An open-label, 2-period study in healthy subjects was carried out to evaluate the pharmacokinetic drug-drug interaction between furosemide and aliskiren when given alone or in combination. A total of 22 healthy male and female volunteers enrolled and 21 completed all study procedures and treatments. The subjects were admitted to the study center for at least 12 hours prior to the initial dosing for baseline evaluation, and confined to the clinic for entire study. Subjects were given an end-of-study evaluation on Day 17 approximately 24 h after the last treatment of aliskiren. For all treatment periods, subjects fasted for a minimum of 10 hours pre-dose to 4 hours post-dose. Subjects were considered to have completed the study when all safety and pharmacokinetic evaluations had been completed.
In Period 1 (Study Days 1-3), subjects received a single 20 mg daily dose of furosemide. In Period 2 (Study Days 7-16), subjects received 300 mg of aliskiren once a day for a total of 10 days with a single 20 mg daily dose of furosemide co-administered for three days (Study Days 14-16), starting Day 14 of the study. There was a three day wash out between Period 1 and 2 (Study Days 4-6).
Pharmacokinetic blood sampling for aliskiren alone occurred on Study Day 13 up to 24 hours post-dose (5-mL blood samples were collected into lithium heparin tubes on Day 13 of the study at pre-dose, 0.5, 1, 2, 4, 6, 8, 12, 16 and 24 hours after dosing).

[4] = Max, type 2 diabetic patients n = 30
[5] = Min, type 2 diabetic patients n = 30
[6] = human, plasma, po, 300 mg, Geometric Mean, healthy subjects n = 30
[7] = human, plasma, po, 300 mg, Geometric Mean, type 2 diabetic patients n = 30
[8] = human, plasma, po, 300 mg, Median, healthy subjects n = 30
[9] = human, plasma, po, 300 mg, Median, type 2 diabetic patients n = 30
[10] = human, plasma, po, 300 mg, arithmetic mean, healthy subjects n = 30
[11] = human, plasma, po, 300 mg, arithmetic mean, type 2 diabetic patients n = 30
[12] = steady state, 300 mg once a day, Caucasian subjects
[13] = steady state, 300 mg once a day, Japanese subjects

AUC0-96 ([1]; Max, healthy subjects n = 30): 4546 ng·h/mL
AUC0-∞ ([1]; Max, healthy subjects n = 30): 5015 ng·h/mL
Cmax ([1]; Max, healthy subjects n = 30): 979 ng/mL
Tmax ([1]; Max, healthy subjects n = 30): 6.00 h
AUC0-96 [1, 4]: 5662 ng·h/mL
AUC0-∞ [1, 4]: 6171 ng·h/mL
Cmax [1, 4]: 1580 ng/mL
AUC0-96 ([1]; Min, healthy subjects n = 30): 425 ng·h/mL
AUC0-∞ ([1]; Min, healthy subjects n = 30): 482 ng·h/mL
Cmax ([1]; Min, healthy subjects n = 30): 66 ng/mL
Tmax ([1]; Min, healthy subjects n = 30): 0.25 h
AUC0-96 [1, 5]: 431 ng·h/mL
AUC0-∞ [1, 5]: 465 ng·h/mL
Cmax [1, 5]: 80 ng/mL
Tmax [1, 5]: 0.25 h
AUC(0-inf) [1, 6]: 1500 ng·h/mL
AUC(0-t) [1, 6]: 1380 ng·h/mL
Cmax ([1]; human, plasma, po, 300 mg, Geometric Mean, healthy subjects n = 30, read-out: Cmax): 283 ng/mL
Tmax ([1]; human, plasma, po, 300 mg, Geometric Mean, healthy subjects n = 30, read-out: tmax): 1.32 h
AUC(0-inf) [1, 7]: 1740 ng·h/mL
AUC(0-t) [1, 7]: 1590 ng·h/mL
Cmax ([1]; human, plasma, po, 300 mg, Geometric Mean, type 2 diabetic patients n = 30, read-out: Cmax): 322 ng/mL
Tmax ([1]; human, plasma, po, 300 mg, Geometric Mean, type 2 diabetic patients n = 30, read-out: tmax): 1.22 h
AUC(0-inf) [1, 8]: 1340 ng·h/mL
AUC(0-t) [1, 8]: 1260 ng·h/mL
Cmax ([1]; human, plasma, po, 300 mg, Median, healthy subjects n = 30, read-out: Cmax): 278 ng/mL
Tmax ([1]; human, plasma, po, 300 mg, Median, healthy subjects n = 30, read-out: tmax): 1.25 h
AUC(0-inf) [1, 9]: 1900 ng·h/mL
AUC(0-t) [1, 9]: 1610 ng·h/mL
Cmax ([1]; human, plasma, po, 300 mg, Median, type 2 diabetic patients n = 30, read-out: Cmax): 328 ng/mL
Tmax ([1]; human, plasma, po, 300 mg, Median, type 2 diabetic patients n = 30, read-out: tmax): 1 h
AUC(0-inf) [1, 10]: 1780 ng·h/mL
AUC(0-t) [1, 10]: 1640 ng·h/mL
Cmax ([1]; human, plasma, po, 300 mg, arithmetic mean, healthy subjects n = 30, read-out: Cmax): 348 ng/mL
Tmax ([1]; human, plasma, po, 300 mg, arithmetic mean, healthy subjects n = 30, read-out: tmax): 1.97 h
AUC(0-inf) [1, 11]: 2040 ng·h/mL
AUC(0-t) [1, 11]: 1860 ng·h/mL
Cmax ([1]; human, plasma, po, 300 mg, arithmetic mean, type 2 diabetic patients n = 30, read-out: Cmax): 394 ng/mL
Tmax ([1]; human, plasma, po, 300 mg, arithmetic mean, type 2 diabetic patients n = 30, read-out: tmax): 1.62 h
Cavg^SS [2, 12]: 89 (33) ng/mL
Cavg^SS [2, 13]: 105 (49) ng/mL
Tmax ([2]; single dose 300 mg, Caucasian subjects n=19, fasted, read-out: Tmax): 2 h
Tmax ([2]; single dose 300 mg, Japanese subjects n=19, fasted, read-out: Tmax): 2 h
Tmax ([2]; steady state, 300 mg once a day, Caucasian subjects, read-out: Tmax^SS): 2 h
Tmax ([2]; steady state, 300 mg once a day, Japanese subjects, read-out: Tmax^SS): 4 h
AUC(0-t) ([2]; single dose 300 mg, Caucasian subjects n=19): 1120 ng·h/mL
Cmax ([2]; single dose 300 mg, Caucasian subjects n=19, read-out: Cmax): 186 ng/mL
AUC(0-t) ([2]; single dose 300 mg, Japanese subjects n=19): 1390 ng·h/mL
Cmax ([2]; single dose 300 mg, Japanese subjects n=19, read-out: Cmax): 215 ng/mL
AUC [2, 12]: 2140 ng·h/mL
Cmax ([2]; steady state, 300 mg once a day, Caucasian subjects, read-out: Cmax^SS): 321 ng/mL
AUC [2, 13]: 2520 ng·h/mL
Cmax ([2]; steady state, 300 mg once a day, Japanese subjects, read-out: Cmax^SS): 403 ng/mL
AUCτ ([3]; Max): 3973 ng·h/mL
Cmax^SS ([3]; Max): 652 ng/mL
Cmin^SS ([3]; Max): 52.30 ng/mL
tmax^SS ([3]; Max): 6.0 h
Cmin^SS ([3]; Median): 24.40 ng/mL
AUCτ ([3]; Min): 471 ng·h/mL
Cmax^SS ([3]; Min): 116 ng/mL
Cmin^SS ([3]; Min): 6.26 ng/mL
tmax^SS ([3]; Min): 0.5 h
Cmin^SS ([3]; arithmetic mean): 25.80 ng/mL
AUC ([3]; Median): 1810 ng·h/mL
Cmax ([3]; Median): 284 ng/mL
Tmax ([3]; Median): 1 h
AUC ([3]; arithmetic mean): 1890 ng·h/mL
Cmax ([3]; arithmetic mean): 334 ng/mL
Tmax ([3]; arithmetic mean): 1.5 h
Compound: COCCCOc1cc(C[C@@H](C[C@H](N)[C@@H](O)C[C@H](C(=O)NCC(C)(C)C(N)=O)C(C)C)C(C)C)ccc1OC [aliskiren, 2(S),4(S),5(S),7(S)—N-(3-amino-2,2-dimethyl-3-oxopropyl)-2,7-di(1-methylethyl)-4-hydroxy-5-amino-8-[4-methoxy-3-(3-methoxy-propoxy)phenyl]-octanamide]
